# Source: patent publication US8541611B2 (dated 2013)
structure (smiles),measurement,value
CC(C)N(C)S(=O)(=O)NC(=O)c1cc(N=C=O)c(F)cc1Cl,melting point,144 to 148 °C
